These results are taken from US20080227798A1, “POLYMORPHS OF SUCCINATE SALT OF 2-[6-(3-AMINO-PIPERIDIN-1-YL)-3-METHYL-2,4-DIOXO-3,4-DIHYDRO-2H-PYRIMIDIN-1-YLMETHY]-4-FLUOR-BENZONITRILE AND METHODS OF USE THEREFOR” (priority 2006, published 2008).

Common to all, as to format: physicochemical
Series [1] is described as follows: Slurry interconversion studies. The source says: An excess amount of Compound I was slurried in test solvent on a rotating wheel for approximately 5 or 7 days. The solids were typically collected by vacuum filtration, air dried in the hood, and analyzed by XRPD for form identification.
Samples of mixture of Form A and Form B of Compound I were slurried in water and THF:water (9:1), for up to 13 days.

Series [2] in a line: Thermogravimetric analysis (TGA). Here is the method:
Thermogravimetric (TG) analyses were performed using a TA Instruments 2950 thermogravimetric analyzer. Each sample was placed in an aluminum sample pan and inserted into the TG furnace. The furnace was first equilibrated at 25° C., then heated under nitrogen at a rate of 10° C./min, up to a final temperature of 350° C. Nickel and Alumel™ were used as the calibration standards.

Series [3] in a line: Moisture sorption/desorption analysis. Particulars: for weight lost on desorption: 95-5% RH. Here is the method:
Moisture sorption/desorption data were collected on a VTI SGA-100 Vapor Sorption Analyzer. Sorption and desorption data were collected over a range of 5% to 95% relative humidity (RH) at 10% RH intervals under a nitrogen purge. Samples were not dried prior to analysis. Equilibrium criteria used for analysis were less than 0.0100% weight change in 5 minutes, with a maximum equilibration time of 3 hours if the weight criterion was not met. Data were not corrected for the initial moisture content of the samples. NaCl and PVP were used as calibration standards. Moisture sorption and desorption study was conducted on a sample of Form A+B. The sample was prepared by crashed cooling crystallization (Example 3, section A.6) of the polymorphic forms from a ethanol:water (95:5) solution of Compound I. The moisture sorption and desorption study was conducted according to the procedures outlined in Example 3, section B.10. The data collected is plotted in FIG. 13 and summarized in Table L. Moisture sorption and desorption study was conducted on a sample of Form E. The sample was prepared by solvent/antisolvent crystallization (Example 3, section A.7) by the addition of acetonitrile to Compound I in water. The moisture sorption and desorption study was conducted according to the procedures outlined in Example 3, section B.10. The data collected is plotted in FIG. 23 and summarized in Table M. Moisture sorption and desorption study was conducted on a sample of Amorphous Form. The sample was prepared by lyophilolization of a solution of Compound I in water (Example 3, section A.9). The moisture sorption and desorption study was conducted according to the procedures outlined in Example 3, section B.10.

A short description of series [4]: Relative humidity stressing experiments. The text has this:
Samples of Compound I were placed uncovered in approximately 58%, 88%, and 97% relative humidity jars. The samples were stored in the jars for approximately 8 days. The solids were collected and analyzed by XRPD for form identification. […] An aliquot of a mixture of Form A+B was stressed at 88% relative humidity for 23 days. Amorphous Form was stressed at 58% and 88% relative humidity for 23 days.

The next series is described as follows: Dehydration experiment. The source says: Hydrated samples of Compound I were dehydrated at ambient conditions (2 days) and in an ambient temperature vacuum oven (1 day). The solids were collected and analyzed by XRPD for form identification.
Aliquots of Form A+B of Compound I were stored at ambient condition for two days and in an ambient temperature vacuum over for one day. The solids were collected and analyzed by XRPD and confirmed to be Form A.

A short description of series [5]: Thermogravimetric-infrared (TG-IR) analysis. The text has this: Thermogravimetric infrared (TG-IR) analyses were acquired on a TA Instruments thermogravimetric (TG) analyzer model 2050 interfaced to a Magna 560® Fourier transform infrared (FT-IR) spectrophotometer (Thermo Nicolet) equipped with an Ever-Glo mid/far IR source, a potassium bromide (KBr) beamsplitter, and a deuterated triglycine sulfate (DTGS) detector. The TG instrument was operated under a flow of helium at 90 and 10 cc/min for the purge and balance, respectively. Each sample was placed in a platinum sample pan, inserted into the TG furnace, accurately weighed by the instrument, and the furnace was heated from ambient temperature to 250° C. at a rate of 20° C./min. The TG instrument was started first, immediately followed by the FT-IR instrument. Each IR spectrum represents 32 co-added scans collected at a spectral resolution of 4 cm^−1. A background scan was collected before the beginning of the experiment. Wavelength calibration was performed using polystyrene. The TG calibration standards were nickel and Alumel™. Volatiles were identified from a search of the High Resolution Nicolet TGA Vapor Phase spectral library.

“Also recorded” adds a separate entry of the source.

In the case of `Cn1c(=O)cc(N2CCC[C@@H](N)C2)n(Cc2cc(F)ccc2C#N)c1=O.O=C(O)CCC(=O)O` [A + B], the “Final Form after slurry (XRPD)” value in series [1] (THF:H2O 9:1, 13 days (approximate)) was “A + B”.
Turning to `Cn1c(=O)cc(N2CCC[C@@H](N)C2)n(Cc2ccccc2C#N)c1=O.O=C(O)CCC(=O)O` [Amorphous Form], the TGA weight loss in series [2] (from 25° C. to 95° C.) is 1.8%; in series [2] (from 25° C. to 95° C., lyophilized from Compound I in water), 1.8% weight loss from 25 °C to 95 °C. Moreover, the “weight lost on desorption” value in series [3] is recorded as “Approximately 4.7%”. The Weight % chg in series [3] (Samp RH 4.97%, 25.05° C., elapsed 1278.0 min (desorption)) is −1.269%; in series [3] (Samp RH 5.09%, 25.06° C., elapsed 84.0 min), −0.975%; in series [3] (Samp RH 14.98%, 25.06° C., elapsed 113.6 min (sorption)), −0.589%; in series [3] (Samp RH 15.06%, 25.04° C., elapsed 1243.6 min (desorption)), −1.148%; in series [3] (Samp RH 24.92%, 25.05° C., elapsed 158.4 min (sorption)), −0.166%; in series [3] (Samp RH 25.13%, 25.05° C., elapsed 1210.7 min (desorption)), −1.026%. The Weight % chg is given as 0.841% in series [3] (Samp RH 34.90%, 25.04° C., elapsed 277.5 min (sorption)); −0.912% in series [3] (Samp RH 35.06%, 25.05° C., elapsed 1179.2 min (desorption)); 0.000% in series [3] (Samp RH 41.98%, 25.04° C., elapsed 0.1 min (start)); 2.393% in series [3] (Samp RH 45.05%, 25.03° C., elapsed 392.7 min (sorption)); −0.776% in series [3] (Samp RH 45.07%, 25.05° C., elapsed 1144.4 min (desorption)); 4.540% in series [3] (Samp RH 54.99%, 25.02° C., elapsed 470.8 min (sorption)). The Weight % chg is −0.545% in series [3] (Samp RH 55.11%, 25.04° C., elapsed 1092.3 min (desorption)); 6.988% in series [3] (Samp RH 64.90%, 25.02° C., elapsed 508.0 min (sorption)); −0.280% in series [3] (Samp RH 65.07%, 25.03° C., elapsed 1039.8 min (desorption)); 0.437% in series [3] (Samp RH 74.82%, 25.02° C., elapsed 654.6 min (sorption)); 0.176% in series [3] (Samp RH 74.92%, 25.02° C., elapsed 957.5 min (desorption)); 0.922% in series [3] (Samp RH 84.78%, 25.03° C., elapsed 703.8 min (sorption)). Further, the Weight % chg in series [3] (Samp RH 85.31%, 25.02° C., elapsed 877.9 min (desorption)) is on record as 1.010%; in series [3] (Samp RH 94.59%, 25.02° C., elapsed 806.9 min (sorption)) it was 3.400%. Further, the “Post MB XRPD (form after moisture sorption/desorption analysis)” value in series [3] (after moisture sorption/desorption) is “Crystalline, Form A (FIG. 31)”. Moreover, the “weight lost on sorption” value in series [3] (at 75% relative humidity) is “Approximately 7%”. The “weight loss on equilibration at 5% relative humidity” value in series [3] (equilibration at 5% RH) was found to be 1.0%. Moreover, in series [3] (equilibration at 5% RH), the “weight lost on equilibration” value is on record as 1.0% weight lost on equilibration at 5% RH,. Further, the weight gain in series [3] (from 5-95% RH) is 4.4%. Also, the “weight gain on sorption” value in series [3] (from 75% to 95% relative humidity) was 4.4%. Moreover, the weight lost in series [3] (from 95-5% RH) turned out to be 4.7%. The “form by XRPD of the material remaining after the moisture sorption/desorption analysis” value in series [3] (post moisture sorption/desorption) is recorded as “Form A; also recorded: low crystallinity A”. Besides, the “weight gained on sorption” value in series [3] (up to 65% relative humidity) is recorded as “Approximately 8%”.
In the case of `Cn1c(=O)cc(N2CCC[C@@H](N)C2)n(Cc2cc(F)ccc2C#N)c1=O.O=C(O)CCC(=O)O` [Form A+B], the “form by XRPD after relative humidity stressing” value was “Form A” in series [4] (58% relative humidity, 23 days) and “Form A” in series [4] (88% relative humidity, 23 days). Also, in series [1] (slurried in water and THF:water (9:1), up to 13 days), the “form by XRPD after slurry” value is given as “either Form A or Form A+B”. Also, in series [1] (slurried in water, water removed by evaporation), the form after slurry result is on record as “converted to Form A”. In addition, the “form by XRPD after dehydration” value in “Dehydration experiment” (ambient conditions, two days) is “converted to Form A”; in “Dehydration experiment” (vacuum oven at ambient temperature, one day), “converted to Form A”. In addition, the “reversible weight change on sorption/desorption” value in series [3] came out at 1.2%. Moreover, in series [3] (5-95% RH), the “weight gain on sorption” value is on record as 1.2% weight gain from 5-95% RH. In series [3], the “weight lost on desorption” value is recorded as 1.2% weight lost from 95-5% RH. Further, the Weight % chg was −0.658% in series [3] (Samp RH 4.83%, 25.10° C., elapsed 445.9 min (desorption)); −0.665% in series [3] (Samp RH 5.14%, 25.05° C., elapsed 91.5 min); −0.184% in series [3] (Samp RH 14.88%, 25.04° C., elapsed 137.8 min (sorption)); 0.020% in series [3] (Samp RH 14.96%, 25.09° C., elapsed 359.7 min (desorption)); 0.004% in series [3] (Samp RH 25.03%, 25.07° C., elapsed 165.5 min (sorption)); 0.149% in series [3] (Samp RH 25.11%, 25.09° C., elapsed 338.5 min (desorption)). For the same compound, the Weight % chg in series [3] (Samp RH 34.82%, 25.06° C., elapsed 179.7 min (sorption)) came out at 0.098%; in series [3] (Samp RH 34.92%, 25.06° C., elapsed 319.3 min (desorption)), 0.237%; in series [3] (Samp RH 44.88%, 25.06° C., elapsed 196.2 min (sorption)), 0.208%; in series [3] (Samp RH 45.07%, 25.07° C., elapsed 307.3 min (desorption)), 0.299%; in series [3] (Samp RH 54.95%, 25.06° C., elapsed 208.7 min (sorption)), 0.284%; in series [3] (Samp RH 55.02%, 25.07° C., elapsed 296.5 min (desorption)), 0.353%. Besides, the Weight % chg was found to be 0.000% in series [3] (Samp RH 62.77%, 25.03° C., elapsed 0.1 min (start)); 0.406% in series [3] (Samp RH 64.94%, 25.04° C., elapsed 285.2 min (desorption)); 0.347% in series [3] (Samp RH 65.00%, 25.08° C., elapsed 219.7 min (sorption)); 0.406% in series [3] (Samp RH 75.01%, 25.05° C., elapsed 231.9 min (sorption)); 0.456% in series [3] (Samp RH 75.35%, 25.08° C., elapsed 274.2 min (desorption)); 0.466% in series [3] (Samp RH 84.92%, 25.09° C., elapsed 243.8 min (sorption)). The Weight % chg in series [3] (Samp RH 85.01%, 25.08° C., elapsed 265.2 min (desorption)) turned out to be 0.510%; in series [3] (Samp RH 94.67%, 25.08° C., elapsed 256.6 min (sorption)) it was 0.563%. For the same compound, the “water content consistent with weight loss” value in series [5] (from 2.4% weight loss) is given as 0.5 to 1.0 moles of water.
As to `Cn1c(=O)cc(N2CCC[C@@H](N)C2)n(Cc2ccccc2C#N)c1=O.O=C(O)CCC(=O)O` [Form A], the “stability at ambient conditions” value in series [4] (ambient conditions, conclusion from characterization data) is “stable”. For the same compound, the “form by XRPD after relative humidity stressing” value is on record as “Form A” in series [4] (approximately 50% relative humidity, 29 days); “did not exhibit form changes” in series [4] (approximately 58% relative humidity, 29 days); “did not exhibit form changes; also recorded: Form A” in series [4] (approximately 97% relative humidity, 29 days). The TGA weight loss result in series [2] (heated from 25° C. to 165° C.) is “insignificant weight loss”.
Regarding `Cn1c(=O)cc(N2CCC[C@@H](N)C2)n(Cc2cc(F)ccc2C#N)c1=O.O=C(O)CCC(=O)O` [Form D], the “TGA total weight loss” value in series [2] (equilibration plus 25° C. to 85° C.) is given as “approximately 30%”. In addition, in series [2] (from about 30% total weight loss), the “water content consistent with total weight loss” value is “approximately 11 moles of water”. For the same compound, in series [5] (heated from 20° C. to 100° C., evaporation of water), the TG-IR weight loss is listed as 24.0% weight loss when heated from.
